According to patent US20240335465A1 (University of Virginia Patent Foundation, priority 2021, published 2024):

Experiments:
Crassostrea virginica = experiment: DDR in oysters after adductor muscle injection; assay type: in vivo; conditions: hemocytes; cGAMP 25 μg/50 gm, doxorubicin 1 μg/50 gm oyster weight, 16 hours
Experimental: Oysters: Wild adult eastern oysters (Crassostrea virginica) of both male and female sexes ranging from 2 cm-7 cm in length (1 to 3 years in age) were collected from a natural oyster reef on Virgnia's Eastern Shore. Following collection, the diploid oysters were placed on ice and transported approximately 3 h to the University of Virginia main campus in Charlottesville, VA. There they were stored in an aerated aquarium containing water supplemented with Instant Ocean® Aquarium Sea Salt (50 gm/l). […] Treated oysters were kept at 4° C. in the dark for 16 hours after which they were shucked, had their hemolymph/tissues harvested for analysis by western blotting, and dead oyster and shell were disposed of.

NAD^+ = experiment: NAD+ quantification; assay type: cell-based, human; conditions: WT and STING−/− THP1, cGAMP
cell cycle progression = experiment: Cell cycle analysis by flow cytometry (BrdU, propidium iodide); assay type: cell-based, human
Experimental: Cells were washed with cold PBS and resuspended in 0.5 ml PBS to achieve a single cell suspension. Cells were fixed in a tube containing 4.5 ml 70% ethanol kept at 4° C. overnight. Cells were collected by centrifugation at 500 g for 5 minutes and washed twice with PBS. Washed cells were then stained with 1 ml of freshly prepared staining solution containing propidium iodide (10 μg/ml), DNase-free RNaseA (100 μg/ml), and 0.1% (v/v) Triton X-100 before being subjected to flow cytometry measurement. To determine percentage of cell population in various cell cycle stage, ˜10,000-30,000 cells were acquired on an Attune NxT cytometer and analyzed using FCS Express software. Cell cycle analysis was performed on propidium iodide stained cells and single cell events were determined by gating on the area against the width of the propidium iodide pulse signal. DNA cell cycle modeling and fit was performed using the Multicycle AV plugin (Phoenix Flow Systems).
Cells were fixed and stained to detect BrdU incorporation by flow cytometry following the manufacturer's protocol (FITC BrdU Flow Kit, BD Biosciences, Cat #559619).

[1] = system: one-cell fertilized C57BL/6J embryos; experiment: CRISPR/Cas9 mediated gene editing in mouse embryos; assay type: cell-based; conditions: Rosa26 locus, 1 fmole/embryo cGAMP
Experimental: CRISPR/Cas9 mediated gene editing in mouse embryos: Target sites were selected and gRNAs for these target sites were synthesized via in vitro transcription followed by column clean up and ethanol precipitation purification. One-cell fertilized C57BL/6J embryos were microinjected with a mixture of gRNA (50 ng/μl), ssODN (50 ng/μl, IDT, Table 2), and Cas9 protein (40 ng/μl, PNA Bio). […] Injected embryos were cultured to blastocysts then lysed to isolate genomic DNA. The edited locus (Rosa26) was amplified via PCR, and samples were indexed, pooled and run on a MiSeq Nano 2×250 Reagent Kit. Demultiplexed data was analyzed with CRISPResso (Pinello et al., 2016). Reads ambiguously categorized as “HDR/NHEJ” were manually sorted using a window 30 bp wide flanking the cut site, where reads identical to the expected HDR sequence were recategorized accordingly. Samples with fewer than 100 reads were excluded from analysis.

DDR signaling [2] = experiment: DDR signaling immunoblot in HEK293 cells; assay type: cell-based, human; conditions: HEK293, 4 hours post transfection
HEK293-TrLR cells = experiment: HDR and NHEJ assay using Traffic Light Reporter; assay type: cell-based, human
Experimental: TrLR-integrated HEK293 cells were selected through exposure to 5 μg/ml puromycin for 2 weeks. […] 8 hours following this procedure, cells were transfected with pCVL SFFV d14GFP Donor (Addgene Cat #31475), pCBASceI (Addgene Cat #26477)), or Donor+SceI using Lipofectamine 3000. 72 hours post-transfection, cells were trypsinized, collected, and analyzed with an Attune NxT flow cytometer (Thermofisher). To quantify the DNA repair events, ˜10,000-30,000 cells were acquired on an Attune NxT cytometer and analyzed using FCS Express software. Single cell events were determined by gating on the area against the width of the forward scatter pulse signal. Debris removal was performed by excluding events with very low forward and side scatter. For determining % of GFP and mCherry positive cells we established positive and negative populations using mock transfections as negative controls and GFP or mCherry transfected samples as Fluorescence Minus One controls.

DDR signaling [3] = experiment: DDR signaling immunoblotting in primary mouse embryonic fibroblasts

SMILES: Nc1nc2c(ncn2[C@@H]2O[C@@H]3COP(=O)(O)O[C@H]4[C@@H](O)[C@H](n5cnc6c(N)ncnc65)O[C@@H]4COP(=O)(O)O[C@@H]2[C@@H]3O)c(=O)[nH]1 [cGAMP, cyclic guanosine monophosphate-adenosine monophosphate]
- TBK1 phosphorylation (pTBK1) (Crassostrea virginica): TBK1 phosphorylation
- γH2AX (Crassostrea virginica): elevated levels of γH2AX
- abundance of cellular NAD^+ (NAD^+): significantly reduced the abundance of cellular NAD^+ in a STING-dependent manner
- dependence of cGAMP-induced G1 cell cycle arrest on STING, TBK1, IFNAR1, STAT2 (cell cycle progression; STING−/−, shTBK1, shIFNAR1, shSTAT2 THP1): reliant on the former two signaling proteins (i.e. STING and TBK1), but occurs independently of IFNAR and STAT2
- G1 arrest in unperturbed and PARP-inhibited cells (cell cycle progression; WT THP1, 10 μM Rucaparib or vehicle, 24 hours): promotes G1 arrest in both unperturbed as well as PARP-inhibited cells
- number of cells in the S-phase (cell cycle progression; WT THP1, BrdU, 24 hours): decreased the number of cells in the S-phase
- proportion of cells in the G1 phase (cell cycle progression; WT THP1, BrdU, 24 hours): substantially increased the proportion of cells arrested in the G1 phase
- cGAMP-induced G1 arrest after p53 knockdown (cell cycle progression; shP53 U2OS-STING cells, 24 hours): abrogated the cGAMP-induced G1 arrest
- CRISPR/Cas9-mediated HDR editing [1]: significantly diminished
- non-homologous end joining (NHEJ) [1]: unaffected
- total editing frequency [1]: unaffected
- phosphorylation status of H2AX, STING, and STAT2 (DDR signaling [2]): respond normally to cGAMP stimulation
- HDR suppression by cGAMP in rucaparib-pretreated cells (HEK293-TrLR cells; 1 μM Rucaparib): ineffective at HDR suppression in cells pretreated with rucaparib
- HDR in ATM inhibitor treated cells, mock vs. cGAMP (HEK293-TrLR cells; 25 μM KU-55933): still suppressed HDR
- HDR frequency (HEK293-TrLR cells; I-SceI with donor, 72 hours): significantly reduced the prevalence of HDR
- NHEJ frequency (HEK293-TrLR cells; I-SceI, 72 hours): unaffected in either case
- cGAMP-induced H2AX phosphorylation (DDR signaling [3]; Ifnar1−/− or Stat2−/− primary MEFs): unimpaired
- activation of DDR marker γH2AX (DDR signaling [3]; Irf3−/− primary MEFs, 16 hours): proceeded normally
- activation of DDR by cGAMP (γH2AX) (DDR signaling [3]; Sting−/− primary MEFs, 16 hours): abrogated by the deletion of STING
- DDR activation (γH2AX) (DDR signaling [3]; WT primary MEF, Pam3CSK4 500 ng/ml 6 hours, HT-DNA 4 ug/6-well 6 hours, 5′ppp-dsRNA 0.5 μg/6 well 6 hours, cGAMP 16 hours): activated the DDR
